Data taken from PubChem BioAssay (NCI).
Where “and” joins values, the source holds several entries; their conditions need not be identical. Identical values can stand only once.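 Tested at 5 concentrations; 48 h exposure; 96-well plates; endpoints linearly interpolated, else capped at highest concentration. The concentration for 50% growth inhibition is given as GI50. At the TGI there is no net growth.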

What was measured:
Assay in all cases: NCI-60 cell line screen, 48 h
RXF-631 renal = test system: RXF-631 renal
DMS 114 small cell lung = test system: DMS 114 small cell lung
DMS 273 small cell lung = test system: DMS 273 small cell lung
XF 498 CNS = test system: XF 498 CNS
SNB-78 CNS = test system: SNB-78 CNS
HOP-18 NSCLC = test system: HOP-18 NSCLC
MDA-N = test system: MDA-N
KM20L2 colon = test system: KM20L2 colon
LXFL 529 NSCLC = test system: LXFL 529 NSCLC

| SMILES | TGI (RXF-631 renal) [µM] | TGI (DMS 114 small cell lung) | TGI (DMS 273 small cell lung) | TGI (XF 498 CNS) [µM] | TGI (SNB-78 CNS) [µM] | TGI (HOP-18 NSCLC) | TGI (MDA-N) [µM] | TGI (KM20L2 colon) | TGI (LXFL 529 NSCLC) | further results |
| --- | --- | --- | --- | --- | --- | --- | --- | --- | --- | --- |
| CN1CC(C(=O)C2C(=O)c3ccccc3C2=O)C(=O)C(=O)C(C(=O)C2C(=O)c3ccccc3C2=O)C1 (stereo unspecified) | > 100 | > 100 µM | > 100 µM | > 100 | – | – | – | – | – | – |
| CC1=CCC23C(C1)OC(Br)(C=CC2(C)O)C3(C)C (stereo unspecified) | – | > 100 µM | > 100 µM | > 100 | > 100 | > 100 µM | – | – | – | – |
| COc1cccc(/C=C/c2cnc3ccccc3n2)c1OC | – | – | – | – | – | – | > 100 | – | – | – |
| CCOC(=O)C1SC(=Nc2ccc(Cl)c(Cl)c2)N=C1C (stereo unspecified) | > 100 | – | > 100 µM | > 100 | – | > 100 µM | – | 78.8 µM | > 100 µM | – |
| Fc1ccc(C2SCc3nc4ccccc4n32)cc1 (stereo unspecified) | – | > 100 µM | – | > 100 | > 100 | – | – | – | > 100 µM | – |
| O=C(OCC1CO1)c1cccs1 (stereo unspecified) | > 100 | > 100 µM | > 100 µM | > 100 | > 100 | – | – | > 100 µM | > 100 µM | – |
| COc1cc(/C=C2\CCC(CN(C)C)C2=O)ccc1OC(=O)c1ccccc1 (stereo unspecified) | 23.6 | 40.9 µM | 27.4 µM | 34.6 | 39.9 | 30.9 µM | 29.6 | 30.3 µM | 9 µM | – |
| CC(=O)OCC1OC(OC2CC3C(C)(C)C(O)CC[C@]3(C)C3CCC45CC4(CC[C@H]5C(C)CC(O)C4OC4(C)C)[C@]23C)C(O)C(O)C1O (stereo partly specified) | – | 11.3 µM and 21.3 µM | 15.1 µM and 15.7 µM | 14.3 | – | 13.6 µM and 17.5 µM | – | 15.6 µM and 24.2 µM | 12.2 µM and 12.6 µM | GI50 (DMS 114 small cell lung): 6.7 µM; GI50 (HOP-18 NSCLC): 5.27 µM; GI50 (KM20L2 colon): 11.9 µM; GI50 (LXFL 529 NSCLC): 2.92 µM; GI50 (DMS 273 small cell lung): 4.44 µM |
| O=C(C(=O)N1CC2C=CC1CC2)c1c[nH]c2ccccc12 (stereo unspecified) | > 100 | > 100 µM | > 100 µM | – | > 100 | > 100 µM | – | > 100 µM | > 100 µM | – |
| Nc1c(C(=O)Nc2ccccc2)[n+]([O-])c2ccccc2[n+]1[O-] | – | 26.8 µM | 46.9 µM | 32.6 | 40.4 | 26.3 µM | – | 34.7 µM | 28.1 µM | – |
| COc1ccc(/C=C/C(=O)Oc2cc(O)cc(O)c2)cc1 | – | – | – | – | – | – | > 100 | – | – | – |
| COc1ccc(/C=C\c2cc(OC)c(OC)c(OC)c2)cc1OC(=O)CCC(=O)O | – | – | – | – | – | – | > 100 | – | – | – |
| COc1cc2c(cc1O)CC13CCC(=O)N1CCc1cc(OC)c(O)c-2c13 (stereo unspecified) | > 68.1 | > 68.1 µM | – | – | > 68.1 | > 68.1 µM | – | > 68.1 µM | > 68.1 µM | – |
| COc1ccccc1NC(=O)C1=C(C)NC(C)=C(C(=O)Nc2ccccc2OC)C1c1ccc(C)cc1 | – | > 100 µM | > 100 µM | > 100 | > 100 | > 100 µM | – | > 100 µM | > 100 µM | – |
| CCN(CCCl)CCCNc1c2ccccc2nc2ccc(OC)cc12 | – | 1.76 µM | – | – | – | – | – | 2.2 µM | 1.7 µM | GI50 (SNB-78 CNS): 585 µM; GI50 (DMS 273 small cell lung): 177 µM; GI50 (XF 498 CNS): 381 µM |
| CC(=O)OC1CC2(O)C3CCC4CC(O)CCC4(C)C3CCC2(C)C1C1=CC(=O)OC1 (stereo unspecified) | – | – | – | – | – | – | 0.317 | – | – | – |
| CC(=O)CCCCO | – | > 100 µM | > 100 µM | > 100 | > 100 | – | – | – | > 100 µM | – |

| SMILES | TGI (RXF-631 renal) [µM] | TGI (DMS 114 small cell lung) | TGI (DMS 273 small cell lung) | TGI (XF 498 CNS) [µM] | TGI (SNB-78 CNS) [µM] | TGI (HOP-18 NSCLC) | TGI (MDA-N) [µM] | TGI (KM20L2 colon) | TGI (LXFL 529 NSCLC) | further results |
| --- | --- | --- | --- | --- | --- | --- | --- | --- | --- | --- |
| Cc1ccc2c(c1)NC(=O)CC(c1ccccc1)=N2 | – | – | – | – | – | – | 60.7 | – | – | – |
| C/C(=N\N=C(/[Se])N1CC2CCC(CC2)C1)c1ccccn1 | 3.88 | < 0.0229 µM | 1.79 µM | 0.0981 | 2.88 | 1.98 µM | 2.6 | 0.682 µM | 0.0256 µM | – |
| O=C(CC(=O)N1N=C(N2c3ccccc3Sc3ccccc32)CC1c1ccccc1)Nc1ccc(Cl)cc1 (stereo unspecified) | – | > 100 µM | > 100 µM | > 100 | > 100 | > 100 µM | – | > 100 µM | > 100 µM | – |
| C1OC1CO[C@@H]1CO[C@H]2[C@@H]1OC[C@H]2OCC1CO1 (stereo partly specified) | – | > 100 µM | > 100 µM | > 100 | > 100 | > 100 µM | – | > 100 µM | – | – |
| Cc1ccc(SC2=CC(=O)c3nc4ccccc4c4ccnc2c34)cc1 | – | – | – | – | – | – | > 75 | – | – | GI50 (MDA-N): 28.8 µM |
| COC(=O)C1(F)C(=O)NC(=O)NC1O (stereo unspecified) | – | – | – | – | – | – | > 100 | – | – | – |
| O=C(O)c1cc(N=Cc2ccccc2O)cc(C(=O)O)c1 | – | – | – | – | – | – | > 100 | – | – | – |
| CC#CC1/C(=C\C(=O)OC)CCCC1O (stereo unspecified) | – | > 100 µM | > 100 µM | > 100 | > 100 | – | – | – | – | – |
| c1ccc2c(c1)[nH]c1cnc3c4cccnc4[nH]c3c12 | – | 37.4 µM | – | – | 46.6 | 36.7 µM | – | – | 35.5 µM | – |
| COc1cc2c[n+](C)c3c4ccccc4ccc3c2cc1OC (tested in a mixture with another compound) | > 66.1 | 14.6 µM | 15.7 µM | 17.7 | – | 76.8 µM | 20.5 | 37.9 µM | 16 µM | – |
| c1ccc(-c2nc(-c3ccccc3)c(-c3ccccc3)[nH]2)cc1 | – | – | – | – | – | – | > 100 | – | – | – |
| NC(=O)C(c1ccccc1)N1CCOCC1 (stereo unspecified) | – | > 100 µM | > 100 µM | – | > 100 | > 100 µM | – | > 100 µM | > 100 µM | – |
| O=C1C(=O)N(c2ccc(Cl)cc2Cl)C(=O)C(=O)C1c1nc2ccccc2o1 | > 100 | – | > 100 µM | > 100 | > 100 | > 100 µM | – | > 100 µM | > 100 µM | – |
| O=C1CN(C(=O)c2ccccc2)Cc2[nH]c3ccccc3c21 | > 100 | > 100 µM | > 100 µM | > 100 | > 100 | > 100 µM | – | > 100 µM | > 100 µM | – |
| Cc1cc(NS(=O)(=O)c2ccc(NC(=O)c3cccc4c(Nc5ccc(S(=O)(=O)N=C(N)N)cc5)c5ccccc5nc34)cc2)no1 | > 100 | – | > 100 µM | – | > 100 | – | – | > 100 µM | > 100 µM | – |
| NC(N)=NNC(=O)CCCCCCCC(=O)NN=C(N)N | > 100 | > 100 µM | > 100 µM | – | > 100 | – | – | > 100 µM | > 100 µM | – |
| CC(=O)OC1(C)C(=O)OC1(C)C(C)=O (stereo unspecified) | > 100 | > 100 µM | > 100 µM | – | > 100 | > 100 µM | – | > 100 µM | > 100 µM | – |
